Test results as given in patent US6927401B1, “Method of characterizing fluorescent molecules or other particles using generating functions” (Evotec OAI AG, priority 1999, dated 2005).

Key:
[1] = test system: monoclonal antibody exposed on the surface of hybridoma cell line HB-8152
Method: The cell number of a confluent hybridoma culture was determined to be 1.6×10^6 per ml and aliquotes with approx. 0.5×10^6 hybridoma cells in 100 μl were used for each single experiment. The cells were washed in 100 μl phosphate buffered saline (PBS) buffer for 5 minutes to remove soluble antibody from the assay. Subsequently, the cells were incubated for 30 minutes in 100 μl PBS containing the theophylline-TAMRA conjugate at different concentrations: 0, 0.4, 2, 8, 16, 40, 200, 800 nM. […] The degree of fluorescence labelling of the hybridoma cells was determined for each single experiment in four independent measurements.

EGF receptor = target: T1, EGF receptor (Homo sapiens, UniProt P00533); assay: FIDA competition assay, HCT membranes with TMR-EGF and competitor; conditions: binding normalized to absence of competitor, read-out: affinity (competition with TMR-EGF)
T1 construct: endogenous in cells; host or cells: HCT (human colon carcinoma tumor) cells, crude membranes
Method: Binding was determined by the method according to the present invention and was normalized to that in the absence of competitor.

Molecule | IC50 [1] [nM] | Ki (EGF receptor) [nM]
Cn1c(=O)c2[nH]cnc2n(C)c1=O [theophylline, 1,3-dimethylxanthine] | 250 | –
betacellulin: polypeptide growth factor with sequence identity with EGF, from R & D Systems | – | 0.23 ± 0.02
